Legend:
[1] = test system: Eimeria acervulina; test: Eimeria acervulina sporozoite death rate by component of ginkgo leaf powder; type: cell-based
Procedure: (§1) A certain amount of oocysts of each protozoan was put in a tube containing glass beads and pulverized, and then to remove the crushed oocyst cell wall and other debris, internal sporocysts were purified using the percoll density gradient, and washed with PBS solution. A reagent comprising sodium taurocholic acid (Sigma aldrich, USA) and trypsin (Gibco, USA), respectively, was treated to sporocysts of Eimeria tenella, Eimeria acervulina and Eimeria maxima for excystation and they were incubated, and then they were washed with PBS solution once and protozoa were obtained.

[2] = test system: Eimeria tenella; test: Direct killing of protozoa (sporozoites), Eimeria tenella; type: cell-based; details: tested 1 to 500 ppm, vs PBS control
Procedure: (§2) In the present example, protozoan (sporozoite) direct killing ability evaluation was conducted against 3 representative Eimeria kinds known to be infected in most farms (E. tenella, E. acervulina, E. maxima).
as §1

[3] = test system: Eimeria tenella; test: Cell invasion inhibition of Eimeria tenella protozoa in MDBK cells (ITS-1 PCR); type: cell-based; details: read-out: Cell invasion inhibitory effect of protozoan (%)
Procedure: 100,000 MDBK cells (purchased from ATCC) were aliquoted in a 24-well plate, and then incubated at a temperature of 37° C. for 12 hours. […] After removing the cells and protozoa inside the cells through pipetting, DNA was extracted from the cells, and PCR was performed using E. tenella ITS-1 (Internal transcribed spacer-1) gene-specific primers. The sequences of the used primers were described in Table 10 below. Ct values before/after washing for each material were compared and corrected with the ΔCt value of the negative control group to calculate the cell invasion inhibition rate (%) of the protozoa through treatment of each material, and the result was shown in FIG. 2 and Table 11 below.

[4] = test system: Eimeria acervulina; test: Direct killing of protozoa (sporozoites), Eimeria acervulina; type: cell-based; details: tested 1 to 500 ppm, vs PBS control
Procedure: as §2, §1

[5] = test system: Eimeria maxima; test: Direct killing of protozoa (sporozoites), Eimeria maxima; type: cell-based; details: tested 1 to 500 ppm, vs PBS control
Procedure: as §2, §1

[6] = test system: Eimeria tenella; test: In vivo anticoccidial efficacy in broilers after Eimeria tenella challenge inoculation; details: in feed: salinomycin 60 ppm, diclazuril 1 ppm, ginkgo leaf powder 125 ppm; for Anticoccidial index (ACI): Equation 2, out of 200 points; for Lesion index: appendix lesion score x 10; for ADG after challenge inoculation / Survival rate (%): broilers; for ADG after challenge inoculation: before to 7th day after challenge; for Survival rate (%): up to 8th day after challenge; for Oocyst index: from oocyst excretion % of infected negative control; for Daily weight gain compared to negative control group (RWG, %): relative to non-infected negative control; for Appendix lesion score: scale 0-4, 8th day after challenge
Procedure: An in vivo anticoccidial efficacy evaluation test was performed in an animal experiment facility in Gyeongsangnam-do, South Korea. One-day-old female Ross broilers were individually weighed and randomly divided into groups to use in an experiment. Matters and conditions for experimental design were described in Table 2.
For the feed, Korea Feed A1-choi product was used, and each material diclazuril (Yuhan Corporation YUHAN DICLA product), salinomycin (Cheil Bio Cheilsalino-60 product), gallic acid (Sigma product), the ginkgo leaf product prepared in Example 1-2) was added to the feed, respectively, at a concentration described in Table 3 below to be self-mixed. Antibiotics and supplements were not used in general feed and mixed feed, and no anticoccidial agent other than each material was added. Broilers were fed ad libitum throughout the experiment period. After putting 30 1-day-age broilers in cages randomly placed for each of the control group or test group and breeding, general feed (A1-choi product) was fed for 7 days, and then the mixed feed prepared above was ingested by dividing by control group or test group.
The feed formulation administered to the control group (negative control group or positive control group) and test group and whether coccidiosis was induced by Eimeria tenella were described in Table 3 below.
14-day-old broilers were orally inoculated (challenge inoculation) with 10,000 oocysts (over 90% sporulated Eimeria tenella oocysts) per individual to induce coccidiosis.
The anticoccidial efficacy by test group designed in Example 1-3 above was shown as an anticoccidial index (ACI), and the anticoccidial index was calculated by Equation 2 below. The ACI score is out of 200 points, and the higher the ACI score, the more excellent the anticoccidial ability, and when it is 120 points or more to less than 140 points, it is determined that it is effective as an anticoccidial material, and when it is 140 points or more to less than 160 points, it is determined that it is excellent as an anticoccidial material, and when it is 160 points or more, it is determined that the anticoccidial effect is very excellent (Luis Miguel De Pablos et al., Anticoccidial activity of maslinic acid against infection with Eimeria tenella in chickens, Parasitol Res, 2010). Anticoccidial index(ACI)=(survival rate after challenge inoculation (%))+(daily weight gain compared to negative control group(RWG,%))−(lesion score×10)−(fecal oocyst excretion amount index)(Equation 2) • 1) Survival rate: the number of dead individuals was recorded daily, and post mortem autopsy was performed to determine a cause of mortality, and the number of individuals who died due to causes other than coccidiosis was excluded. The survival rate (%) up to the 8th day after challenge inoculation was used for anticoccidial index calculation.
• 3) Lesion scoring: On the 8th day after challenge inoculation, an autopsy was conducted for 4 broilers per cage, and the intestines were incised and opened. Scoring was performed for each coccidial lesion in the appendix region of the broilers. The lesion scoring method was performed by referring to Johnson J K & Reid W M (1970) document (Joyce Johnson, W. Malcolm Reid, Anticoccidial drugs: Lesion scoring techniques in battery and floor-pen experiments with chickens, Experimental parasitology, 1970). The lesion score is on a scale of 0-4, and 0 point corresponds to normal appendix, and 1 point is a mild infection symptom, and 2 points is a moderate infection symptom, and 3 points is a severe infection symptom and 4 points is a case of showing a very severe infection symptom or causing death. A lesion index was calculated by multiplying the measured appendix lesion score by 10, and this was used for anticoccidial index calculation.
• 4) Fecal oocyst excretion amount: the entire feces on the 6˜8th day of challenge inoculation were collected by cage, mixed evenly, and then randomly sampled 3 times in total by 1 g each. […]

[7] = test system: Eimeria tenella; test: Intracellular propagation inhibition of Eimeria tenella protozoa in MDBK cells (ITS-1 PCR); type: cell-based; details: read-out: Intracellular protozoal propagation inhibitory effect (%)
Procedure: 100,000 MDBK cells (purchased from ATCC) were aliquoted in a 24-well plate, and then incubated at a temperature of 37° C. for 12 hours. The protozoan of Eimeria tenella was obtained similar to the method of Example 2 above. […] A negative control group is a MDBK cell infected by protozoa, and a positive control group means a group in which salinomycin and diclazuril solution was incubated with the Eimeria tenella protozoan. After removing the cells and protozoa inside the cells through pipetting, DNA was extracted from the cells, and PCR was performed using E. tenella ITS-1 (Internal transcribed spacer-1) gene-specific primers. The sequences of the used primers were described in Table 10 above.
Ct values before/after washing for each material were compared to calculate the cell invasion inhibition rate (%) of the protozoa and the intracellular protozoan propagation inhibition rate (%) through treatment of the material, and the result was shown in FIG. 2 and Table 11 below.

## CC(C)(C)C1(O)CC2OC(=O)CC23C(=O)OC2OC(=O)C(O)C231 (stereo not drawn) [Bilobalide]
[1]; 8 ppm
  Eimeria acervulina sporozoite death rate (%): 0%
[1]; 16 ppm
  Eimeria acervulina sporozoite death rate (%): 0%
[1]; 31 ppm
  Eimeria acervulina sporozoite death rate (%): 0%
[1]; 63 ppm
  Eimeria acervulina sporozoite death rate (%): 8%
[1]; 125 ppm
  Eimeria acervulina sporozoite death rate (%): 14%
[1]; 250 ppm
  Eimeria acervulina sporozoite death rate (%): 41%
[1]; 500 ppm
  Eimeria acervulina sporozoite death rate (%): 51%

## N#CC(c1ccc(Cl)cc1)c1c(Cl)cc(-n2ncc(=O)[nH]c2=O)cc1Cl (stereo not drawn) [Diclazuril, diclazuril]
[2]
  Minimum concentration for killing 50% protozoa (sporozoites) (ppm): 500 ppm
[3]; 0.5 ppm, MDBK cells, 24 hours
  inhibition at 0.5 ppm: 0%
[3]; 1 ppm, MDBK cells, 24 hours
  inhibition at 1 ppm: 6.3%
[4]
  Minimum concentration for killing 50% protozoa (sporozoites) (ppm): >500 ppm
[5]
  Minimum concentration for killing 50% protozoa (sporozoites) (ppm): >500 ppm
[6]
  Anticoccidial index (ACI): 148
  Lesion index: 29
  ADG after challenge inoculation: 62 g/day
  Survival rate (%): 97%
  Oocyst index: 10
  Daily weight gain compared to negative control group (RWG, %): 93%
  Appendix lesion score: 2.88
[7]; 0.5 ppm, MDBK cells
  inhibition at 0.5 ppm: 45.9%
[7]; 1 ppm, MDBK cells
  inhibition at 1 ppm: 52.9%

## O=C(O)c1cc(O)c(O)c(O)c1 [Gallic acid, gallic acid]
[2]
  Minimum concentration for killing 50% protozoa (sporozoites) (ppm): >500 ppm
[2]; listed as gallic acid
  Minimum concentration for killing 50% protozoa (sporozoites) (ppm): > 500 ppm
[3]; 5 ppm, MDBK cells, 24 hours
  inhibition at 5 ppm: 76%
[3]; 10 ppm, MDBK cells, 24 hours
  inhibition at 10 ppm: 90.1%
[4]
  Minimum concentration for killing 50% protozoa (sporozoites) (ppm): >500 ppm
[5]
  Minimum concentration for killing 50% protozoa (sporozoites) (ppm): >500 ppm
[7]; 5 ppm, MDBK cells
  inhibition at 5 ppm: 0%
[7]; 10 ppm, MDBK cells
  inhibition at 10 ppm: 0%

## O=c1c(O)c(-c2ccc(O)cc2)oc2cc(O)cc(O)c12 [Kaempferol]
[1]; 8 ppm
  Eimeria acervulina sporozoite death rate (%): 0%
[1]; 16 ppm
  Eimeria acervulina sporozoite death rate (%): 0%
[1]; 31 ppm
  Eimeria acervulina sporozoite death rate (%): 0%
[1]; 63 ppm
  Eimeria acervulina sporozoite death rate (%): 0%
[1]; 125 ppm
  Eimeria acervulina sporozoite death rate (%): 1%
[1]; 250 ppm
  Eimeria acervulina sporozoite death rate (%): 27%
[1]; 500 ppm
  Eimeria acervulina sporozoite death rate (%): 54%

## O=c1c(O)c(-c2ccc(O)c(O)c2)oc2cc(O)cc(O)c12 [Quercetin]
[1]; 8 ppm
  Eimeria acervulina sporozoite death rate (%): 0%
[1]; 16 ppm
  Eimeria acervulina sporozoite death rate (%): 0%
[1]; 31 ppm
  Eimeria acervulina sporozoite death rate (%): 0%
[1]; 63 ppm
  Eimeria acervulina sporozoite death rate (%): 8%
[1]; 125 ppm
  Eimeria acervulina sporozoite death rate (%): 34%
[1]; 250 ppm
  Eimeria acervulina sporozoite death rate (%): 47%
[1]; 500 ppm
  Eimeria acervulina sporozoite death rate (%): 68%

## CC[C@@H](C(=O)[C@@H](C)[C@@H](O)[C@H](C)[C@@H]1O[C@@H]([C@@H](CC)C(=O)O)CC[C@@H]1C)[C@H]1O[C@]2(C=C[C@@H](O)[C@]3(CC[C@@](C)([C@H]4CC[C@](O)(CC)[C@H](C)O4)O3)O2)[C@H](C)C[C@@H]1C [Salinomycin, salinomycin]
[2]
  Minimum concentration for killing 50% protozoa (sporozoites) (ppm): 125 ppm
[3]; MDBK, 24 h
  inhibition at 5 ppm: 50.1%
  inhibition at 10 ppm: 56.4%
[4]
  Minimum concentration for killing 50% protozoa (sporozoites) (ppm): 100 ppm
[5]
  Minimum concentration for killing 50% protozoa (sporozoites) (ppm): 250 ppm
[6]
  Anticoccidial index (ACI): 141
  Lesion index: 27
  ADG after challenge inoculation: 62 g/day
  Survival rate (%): 93%
  Oocyst index: 20
  Daily weight gain compared to negative control group (RWG, %): 94%
  Appendix lesion score: 2.7
[7]; MDBK
  inhibition at 5 ppm: 32.2%
  inhibition at 10 ppm: 34.8%

From patent US12622941B2, “Anticoccidial composition comprising ginkgo leaves and use thereof” (CJ CHEILJEDANG CORPORATION, priority 2020, dated 2026)
